# In US8426409B2, “Inhibitors of Bruton's tyrosine kinase” (Roche Palo Alto LLC, priority 2008, dated 2013):
# Target: T1, Btk enzyme (His-tagged, full-length) (Homo sapiens, UniProt Q06187)
# T1 construct: 5-10 nM Btk enzyme (His-tagged, full-length); His
# Assay: Bruton's Tyrosine Kinase (Btk) Inhibition Assay (33P filtration capture)
# Format: biochemical
# Conditions: 100 μM ATP, 30 μM biotinylated peptide substrate, 30 min at 30° C.
# From the text: The assay is a capture of radioactive ^33P phosphorylated product through filtration. The interactions of Btk, biotinylated SH2 peptide substrate (Src homology), and ATP lead to phosphorylation of the peptide substrate. Biotinylated product is bound streptavidin sepharose beads. All bound, radiolabeled products are detected by scintillation counter.
# Plates assayed are 96-well polypropylene (Greiner) and 96-well 1.2 μm hydrophilic PVDF filter plates (Millipore). Concentrations reported here are final assay concentrations: 10-100 μM compounds in DMSO (Burdick and Jackson), 5-10 nM Btk enzyme (His-tagged, full-length), 30 μM peptide substrate (Biotin-Aca-AAAEEIYGEI-NH2), 100 μM ATP (Sigma), 8 mM imidazole (Sigma, pH 7.2), 8 mM glycerol-2-phosphate (Sigma), 200 μM EGTA (Roche Diagnostics), 1 mM MnCl2 (Sigma), 20 mM MgCl2 (Sigma), 0.1 mg/ml BSA (Sigma), 2 mM DTT (Sigma), 1 μCi ^33P ATP (Amersham), 20% streptavidin sepharose beads (Amersham), 50 mM EDTA (Gibco), 2 M NaCl (Gibco), 2 M NaCl w/1% phosphoric acid (Gibco), microscint-20 (Perkin Elmer).
# IC50 determinations are calculated from 10 data points per compound utilizing data produced from a standard 96-well plate assay template. […] Background was counted in the absence of peptide substrate. Total activity was determined in the presence of peptide substrate. […]
# T1 sequence (Q06187 whole entry): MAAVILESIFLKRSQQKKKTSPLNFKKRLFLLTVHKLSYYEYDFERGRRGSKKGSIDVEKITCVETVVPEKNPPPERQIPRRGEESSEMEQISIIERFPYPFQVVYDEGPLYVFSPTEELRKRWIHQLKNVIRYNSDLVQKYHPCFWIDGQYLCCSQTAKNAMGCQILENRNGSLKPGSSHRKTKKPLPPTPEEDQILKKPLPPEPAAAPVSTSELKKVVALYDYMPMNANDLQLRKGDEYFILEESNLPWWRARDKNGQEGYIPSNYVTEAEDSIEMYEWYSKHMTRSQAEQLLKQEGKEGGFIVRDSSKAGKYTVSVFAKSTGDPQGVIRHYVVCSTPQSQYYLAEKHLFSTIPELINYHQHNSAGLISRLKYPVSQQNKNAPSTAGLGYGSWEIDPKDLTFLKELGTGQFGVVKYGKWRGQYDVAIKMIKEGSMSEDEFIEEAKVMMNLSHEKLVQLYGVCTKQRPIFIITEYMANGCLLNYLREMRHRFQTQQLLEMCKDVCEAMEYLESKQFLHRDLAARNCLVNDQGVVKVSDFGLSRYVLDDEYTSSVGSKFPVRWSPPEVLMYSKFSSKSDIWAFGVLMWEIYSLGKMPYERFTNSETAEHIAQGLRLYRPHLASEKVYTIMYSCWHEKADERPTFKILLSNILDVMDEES
row,IC50,SMILES
1,25 nM,"O=C(c1ccc(Nc2nc(-c3cccc(N4CCc5cc(C6CC6)ccc5C4=O)c3CO)cn3ccnc23)cc1)N1CCOCC1 [II-1, 6-Cyclopropyl-2-(2-hydroxymethyl-3-{8-[4-(morpholine-4-carbonyl)-phenylamino]-imidazo[1,2-a]pyrazin-6-yl}-phenyl)-3,4-dihydro-2H-isoquinolin-1-one]"
2,37 nM,"O=C1c2ccc(C3CC3)cc2CCN1c1cccc(-c2cn3ccnc3c(Nc3ccc(CN4CCOCC4)cc3)n2)c1CO [II-2, 6-Cyclopropyl-2-{2-hydroxymethyl-3-[8-(4-morpholin-4-ylmethyl-phenylamino)-imidazo[1,2-a]pyrazin-6-yl]-phenyl}-3,4-dihydro-2H-isoquinolin-1-one]"
